Measured values published in PubChem BioAssay (NCI).
Where “and” joins values, the source holds several entries; their conditions need not be identical. Identical values can stand only once.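 The compound was tested at five concentrations on cells cultured in 96-well plates, with a 48-hour exposure period. GI50: concentration for 50% inhibition of growth. TGI: concentration producing complete growth inhibition.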

Columns and labels:
Assay in all cases: DTP human tumour cell line panel, 48 h
SR leukemia = system: SR leukemia
HL-60(TB) leukemia = system: HL-60(TB) leukemia
MDA-MB-435 = system: MDA-MB-435
KM12 colon = system: KM12 colon
A498 renal = system: A498 renal
HCT-116 colon = system: HCT-116 colon
SW-620 colon = system: SW-620 colon
UACC-257 melanoma = system: UACC-257 melanoma
OVCAR-8 ovarian = system: OVCAR-8 ovarian
NCI/ADR-RES ovarian = system: NCI/ADR-RES ovarian

Structure (SMILES)	TGI (SR leukemia)	TGI (HL-60(TB) leukemia)	TGI (MDA-MB-435)	TGI (KM12 colon) [µM]	TGI (A498 renal) [µM]	TGI (HCT-116 colon) [µM]	TGI (SW-620 colon) [µM]	TGI (UACC-257 melanoma) [µM]	TGI (OVCAR-8 ovarian) [µM]	TGI (NCI/ADR-RES ovarian) [µM]	GI50 (SR leukemia) [µM]	GI50 (HL-60(TB) leukemia) [µM]	GI50 (MDA-MB-435) [µM]	GI50 (KM12 colon)	GI50 (A498 renal) [µM]	GI50 (HCT-116 colon) [µM]	GI50 (SW-620 colon) [µM]	GI50 (UACC-257 melanoma) [µM]	GI50 (OVCAR-8 ovarian)	GI50 (NCI/ADR-RES ovarian)
Cc1cc(=O)oc2c(C)c(O)ccc12	> 100 µM	> 100 µM	> 100 µM	> 100	> 100	> 100	> 100	> 100	> 100	> 100	–	–	–	–	–	–	–	–	–	–
CS(=O)(=O)CCNCc1ccc(-c2ccc3ncnc(Nc4ccc(OCc5ccccc5)c(Br)c4)c3c2)o1	> 23.3 µM	15.9 µM	15.8 µM	> 25	16.3	11.8	11.1	9.3	> 25	> 25	8.49	6.81	6.09	9.06 µM	4.35	5.26	5.29	4.77	9.62 µM	6.87 µM
Nc1c2c(c(O)c3c1=C(CO)C=N3)=NCCS2	0.774 µM	0.512 µM	0.169 µM	1.74	0.285	0.524	0.391	0.288	0.88	0.824	0.235	0.222	0.0521	0.325 µM	0.148	0.223	0.202	0.142	0.307 µM	0.256 µM
C=C1C(=O)OC2C1CCC(C)C1C=CC(=O)C12C (centres undefined)	9.73 µM	4.85 µM	3.34 µM	5.96	26.7	3.91	4.68	4.61	–	–	–	–	–	–	–	–	–	–	–	–
COc1cc2c(cc1OC)-c1ccc3cc4c(cc3c1N(CCCn1ccnc1)C2)OCO4	> 100 µM	5.71 µM	16.8 µM	31.8	27.1	16.2	21	23.3	43.6	> 100	0.579	1.92	4.35	6.05 µM	7.66	2.93	1.58	5.9	5.49 µM	> 100 µM
COc1ccc(-c2cc(-c3ccc(Cl)cc3)nc(SCCCC(=O)NO)n2)cc1	–	> 23 µM	3.19 µM	4.12	3.28	> 100	3.29	10.4	> 100	1.28	0.358	1.65	1.21	1.44 µM	1.38	0.563	0.553	2.31	0.427 µM	0.314 µM
O=c1cc(N2CCN(CCCCCOc3cc(O)c4c(=O)cc(-c5ccccc5)oc4c3)CC2)c2ccccc2o1	> 100 µM	> 100 µM	> 100 µM	> 100	> 100	> 100	> 100	> 100	> 100	> 100	42.9	17.5	47.2	77.8 µM	> 100	25.4	> 100	> 100	> 100 µM	74.2 µM
Cc1ccc(NC2=C(Cl)C(=O)N(Cc3ccc(Cl)cc3)C2=O)cc1O	> 100 µM	> 100 µM	26.2 µM	39.6	25.9	29	66.6	28.7	38.6	37.8	71.4	54.8	4.45	13.8 µM	11.9	6.57	7.76	13	7.1 µM	9.24 µM
O=C1CC(=O)N(C(=O)c2nn(-c3ccc(Cl)cc3)cc2O)N1	5.04 µM	4.08 µM	> 100 µM	> 100	–	> 100	> 100	–	> 100	> 100	0.26	0.751	0.355	1.03 µM	–	0.34	2.19	0.8	0.636 µM	1.16 µM
COc1ccc(-c2cc(-c3cccn3C)c(C#N)c(=O)[nH]2)cc1OC	> 100 µM	–	> 100 µM	> 100	> 100	> 100	> 100	> 100	> 100	> 100	0.483	–	> 100	> 100 µM	56.6	> 100	> 100	> 100	> 100 µM	> 100 µM
COc1cc(Nc2nc3ccccc3nc2NS(=O)(=O)c2ccc(NC(=O)c3ccc(C)c(OC)c3)cc2)cc(OC)c1	51.2 µM and 49.1 µM and > 10 µM	38 µM and 52.9 µM and > 8.02 µM	> 100 µM and 86.2 µM and > 5.19 µM	> 100	–	> 100	> 100	–	> 100	> 100	–	–	–	3.62 µM and 20 µM and 2.35 µM	–	–	–	–	4.19 µM and 20.5 µM and 2.82 µM	4.36 µM and 17.7 µM and > 3.64 µM
c1ccc2c(NCCCCCCNc3c4ccccc4nc4ccccc34)c3ccccc3nc2c1	0.991 µM	–	2.27 µM	1.81	2.83	0.693	2.18	8.28	3.18	64.2	–	–	–	–	–	–	–	–	–	–
C=C(NC(=O)C(=C)NC(=O)c1csc(C2=NC3c4csc(n4)C4NC(=O)c5csc(n5)C(C(C)(O)C(C)O)NC(=O)C5CSC(=N5)C(=CC)NC(=O)C(C(C)O)NC(=O)c5csc(n5)C3(CC2)NC(=O)C(C)NC(=O)C(=C)NC(=O)C(C)NC(=O)C(C(C)CC)NC2C=Cc3c(C(C)O)cc(nc3C2O)C(=O)OC4C)n1)C(N)=O (centres undefined)	69.1 µM	31.7 µM	> 100 µM	27.5	–	4.09	> 100	> 100	> 100	> 100	–	5.13	3.96	5.52 µM	–	1.74	2.73	29.4	7.02 µM	> 100 µM
